Test results published in a melting point compilation (Tetko et al.; mined from patent text by program, amines drawn as free bases though some values may be those of a salt).

| melting point | SMILES |
| --- | --- |
| 186 to 188 °C | NC(=O)CN1C(=O)CC2Cc3c(Cl)cccc3C21 (stereo unspecified) |
| 180 to 181 °C | COc1ccc2c3c([nH]c2c1)C(=S)C(CC1CCN(Cc2ccccc2)CC1)C3 (stereo unspecified) |
| 194 °C | COc1ccc(Cl)c(Oc2c(C=O)nc(N3CCOCC3)nc2NS(=O)(=O)c2ccc(C(C)C)cn2)c1 |
| 171 to 172 °C | CCOC(=O)C1Cc2ccc(NC)cc2NC1=O (stereo unspecified) |
| 143 to 145 °C | O=[N+]([O-])c1ccc(-c2ncnn2-c2ccccc2F)cc1 |
| 198 to 200 °C | CC(=O)OCC1Cc2cccc3c(C4=C(c5cn(C)c6ccccc56)C(=O)OC4=O)cn(c23)C1 (stereo unspecified) |
| 83 to 86 °C | CN(C)CCCc1ccc(C(=O)/C=C/c2ccc(Cl)cc2)cc1 |
| 188 to 189 °C | CS(=O)(=O)c1ccc(-c2sc(-c3ccccc3)nc2-c2ccc(F)cc2)cc1 |
| 197 to 198 °C | CN(C)c1ccc(NC(=O)[C@@H](Cc2ccccc2)NC(=O)CCC(=O)O)cc1 |
| 149 to 150 °C | CCC(Oc1ccc(F)cc1)C(=O)OC1CC(O)C=C2C=CC(C)C(CCC3CC(O)CC(=O)O3)C21 (mixture of isomers) |
| 96 to 97 °C | CCOC(=O)c1ccc(/C=C(\C)c2ccc3c(c2)CCC(C)(C)CS3)cc1 |
| 263 to 266 °C | O=C(NN1CCN(C(=O)Nc2ccccc2)CC1)c1ccc(F)cc1 |
| 190 to 192 °C | CNc1nc(Nc2ccccc2C)c2cccc(OC)c2n1 |
| 106 to 108 °C | COCN(C(=O)CCl)c1c([N+](=O)[O-])cccc1[N+](=O)[O-] |
| 188 to 190 °C | Cc1ccc(Cn2c(=O)cc(C(C)C(=O)O)c3cc(C)ccc32)cc1 (stereo unspecified) |
| 190 to 195 °C | CCCN1C(=O)N2CC(c3cccnc3)CN=C2c2[nH]c(C3CCCC3)nc21 (stereo unspecified) |
| 175 °C | CS(=O)(=O)c1ccc(C(=O)c2cc(-c3ccccc3)c(N3CCOCC3)s2)cc1 |
| 100 °C | CN1CC(COC2c3ccccc3CCn3cc(I)nc32)C1 (stereo unspecified) |
| 135 to 137 °C | CN1CN(C(=O)c2c(F)cccc2F)C(=O)N(c2ccc(SC(F)F)cc2F)C1 |
| 203 °C | O=C(Oc1ccc2c(c1Cl)Sc1ccccc1N2)c1ccccc1 |

| melting point | SMILES |
| --- | --- |
| 128 to 132 °C | O=S1(=O)N=C2CCCN2c2ccc(Oc3cccc(-c4ccoc4)c3)cc21 |
| 232 to 233 °C | O=C1Nc2ccccc2N2CCc3cc(Cl)cc1c32 |
| 91 to 93 °C | Cc1ccccc1/C=C/c1nc(COc2ccc(CCCCn3ccnc3CCO)cc2)co1 |
| 203 to 205 °C | C[C@H](CO)Nc1nc(SCc2ccccc2F)nc2[nH]c(=O)cnc12 |
| 181 to 185 °C | CC(C)(C(=O)O)n1nc2ccc(NCCCN3CCC(OC(c4ccccc4)c4ccccc4)CC3)nn2c1=O |
| 92 to 93 °C | COC(=O)c1ccc(C#CCc2cccc3c2OCCC3(C)C)cc1O |
| 92 to 94 °C | COC(=O)COc1ccc(SCc2cc(-c3ccc(Cl)cc3)no2)c2c1CCC2 |
| 165 to 167 °C | CCOC(=O)COc1cc(C(=O)Oc2ccc([N+](=O)[O-])cc2)c(O)c2ccccc12 |
| 107 to 120 °C | CC(CF)(CF)C(O)C(Oc1cccc(C(F)(F)F)c1)n1ccnc1 (stereo unspecified) |
| > 260 °C | O=C1C(=O)c2c(nc3ccc(Cl)cn23)-c2cccc(Cl)c21 |
| 190 to 192 °C | O=C(O)c1ccccc1C(=O)c1ccc(N2CCCC2)cc1O |
| 87 to 88 °C | Cc1nc(-c2cccc([N+](=O)[O-])c2)cs1 |
| 167 °C | CC(O)(C(=O)Nc1ccc(Cl)cc1)c1ccc(F)cc1Cl (stereo unspecified) |
| 121 °C | CCOC(=O)c1ccc(C#CC(O)c2cc(-c3ccccc3)cc3c2C(C)(C)CCC3(C)C)cc1 (stereo unspecified) |
| 84 to 86 °C | COCCOc1ccc(CC(C)CO)c(Oc2ncc(C(F)(F)F)cc2Cl)c1 (stereo unspecified) |
| 208 to 210 °C | O=C1[C@@H]2Cc3c([nH]c4ccccc34)[C@H](c3ccc4c(c3)OCO4)N2C(=O)N1Cc1ccccc1 (relative stereo) |
| 118 to 121 °C | CCc1cccc(C)c1CNc1cc(Cl)nc(Cl)c1[N+](=O)[O-] |
| 213 to 214 °C | COc1ccccc1N1CCN(CCc2[nH]c(=O)[nH]c2-c2ccc(F)cc2)CC1 |
| 230 to 233 °C | NC(=O)CNS(=O)(=O)c1ccc(CCN2CC=C(c3c[nH]cc3-c3ccncc3)CC2c2ccc(F)cc2)cc1 (stereo unspecified) |
| 223 to 224 °C | CCCCc1nc2c(N)nc3ccccc3c2n1CCCCNS(=O)(=O)c1cccc2c(N(C)C)cccc12 |

More lines, now with the values behind:

| SMILES | melting point |
| --- | --- |
| N#Cc1ccc(COc2ccc(-c3ccc(C4Cc5ccccc5C(c5c(O)c6ccccc6oc5=O)C4)cc3)cc2)cc1 (stereo unspecified) | 127 °C |
| O=Cc1cc(Br)cnc1Cl | 88 to 89 °C |
| CN(C)C1Cc2cccc3[nH]c(=S)n(c23)C1 (stereo unspecified) | 203 to 205 °C |
| O=C(O)c1sccc1SSc1ccsc1C(=O)O | 256 to 257 °C |
| O=CN[C@H]1CC[C@H](CCN2CCN(c3nccc4c3OCC4)CC2)CC1 | 154 °C |
| CC(C#N)c1ccc(O)c(N)c1 (stereo unspecified) | 110 to 112 °C |
| CCOC(=O)c1cccc2c1CCC2C#N (stereo unspecified) | 93 to 95.5 °C |
| CCOC(=O)c1c(C)nc2nccnc2c1NCCCN(C)C | 42 to 44 °C |
| CCCNC(=O)c1c(N)cc(Cl)cc1Cl | 113 to 119 °C |
| CCCc1cc(=O)oc2cc(OC(=O)CC)cc(O)c12 | 166 to 168 °C |
| COCCN1CCc2cc(Nc3ncc(Cl)c(NC4(C(=O)NCC#N)CC4)n3)c(OC)cc2CC1 | 187 to 189 °C |
| COc1c(O)ccc2cc[nH]c12 | 83 to 84 °C |
| COc1ccc(CN(CCN(C)CCNC(=C[N+](=O)[O-])NCCCOc2cccc(CN3CCCCC3)c2)c2ccccn2)cc1 | 102 to 104 °C |
| CN1CCNCCNCCNCCNCC1 | 71 to 72.5 °C |
| CC(C)N(CCC1(c2ccccn2)CCC(=O)NC1=O)C(C)C (stereo unspecified) | 101 to 102 °C |
| CCCC(=O)c1cc2nc(C=O)n(C)c2cc1C | 107 to 108 °C |

| SMILES | melting point |
| --- | --- |
| Cc1nc2cc(OC3SCC(O)C(O)C3O)ccc2s1 (stereo unspecified) | 210 to 211 °C |
| COc1cc(N)c(Cl)cc1C(=O)NC1CCN(CC2CCCCC2)CC1C (stereo unspecified) | 173 to 176 °C |
| CC[C@H](NS(=O)(=O)c1ccc(OC)cc1)C(=O)OC | 64 °C |
| CCCOc1nsnc1S(C)(=O)=O | 30 to 31 °C |
| CC1(C)CCC(=C[C@H]2[C@H](C(=O)O)C2(C)C)CC1 (relative stereo) | 96 °C |
| Brc1ccc2c(C3CCNCC3)n[nH]c2c1 | 163 to 165 °C |
| COc1cc(C(=O)N2CCNC(C(=O)N(C)C)C2)cc(OC)c1OC (stereo unspecified) | 167 to 168 °C |
| O=CNc1nc2ccc([N+](=O)[O-])cc2s1 | 248 to 251 °C |
| CCOC(OCC)C(C#N)(C=O)Cc1cc(OC)c(OC)c(OC)c1 (stereo unspecified) | 109 to 115 °C |
| CCOc1ccc(C(=O)CCC(=O)O)c(OCC)c1 | 139 to 141 °C |
| CCO[PH](=O)OP(=O)(CNC(C)(c1ccccc1)c1cc(C(C)(C)C)c(O)c(C(C)(C)C)c1)OCC (stereo unspecified) | 95 to 110 °C |
| CCCCC12CCC3C4CCC(=O)C=C4CCC3C1CCC2O (stereo unspecified) | 169 to 170 °C |
| CCOC(=O)N1CCC(Nc2nc3cncnc3n2Cc2ccco2)CC1 | 172 °C |
| O=S(=O)(C(=CNc1nccs1)S(=O)(=O)c1ccccc1)c1ccccc1 | 189 to 191 °C |
| O=[N+]([O-])c1cc(Cl)c(Oc2cc(Cl)c(Br)cc2Cl)cc1Oc1ccccc1 | 85 °C |
